According to patent publication US9156860B2, “Boron-containing small molecules” (Anacor Pharmaceuticals, Inc., priority 2011, dated 2015):

Columns and labels:
[1] = Tolerability of oral treatment in dogs; assay type: in vivo, beagle dogs
Method: The therapeutic (knockdown) and residual efficacy of 7, administered orally at a point dosages of 5 and 25 mg/kg bodyweight, was evaluated against adult American dog tick (D. variabilis) and cat flea (C. felis) infestations on dogs. Sixteen (16) male and female beagle dogs were allocated to one of four treatment groups: Untreated control group (n=4 dogs); 7, 5 mg/kg liquid oral dosage form (n=4 dogs); 7, 25 mg/kg liquid oral dosage form (n=4 dogs); and 7, 25 mg/kg solid oral dosage form. Liquid dosage forms were prepared by dissolving 7 in a solution of 55% polyethylene glycol-300, 35% propylene glycol and 10% water at 25 mg/ml. Solid oral dosage form was prepared by thoroughly mixing 7 with microcrystalline cellulose and croscarmellose sodium (50:47:3, w/w) and placing into size 00 gelatin capsules. On Day 0, all dogs were orally administered 7 at the prescribed point dosages. Twenty-four (24) hours before treatment (Day −1), all dogs were infested with approximately 50 unfed, adult-stage American dog ticks (D. variabilis; approximately 50% male and 50% female). On Day 2, approximately 48 hours after treatment, ticks were removed and counts were conducted to determine the number and life-status classification of ticks present on all dogs (normal, moribund or dead; attached or detached). For all groups, dogs were re-infested with approximately 50 unfed, adult D. variabilis ticks on Days 5 and 12, with tick classification, counts and removal on Days 7 and 14 (approximately 48 hours after each infestation). For negative control and 7 (25 mg/kg solid oral dosage form) groups, dogs were re-infested with approximately 50 unfed, adult D. variabilis ticks on Days 19 and 28, with tick classification, counts and removal on Days 21 and 30. Immediately following removal of ticks on Day 30, dogs in the negative control and 7 (25 mg/kg solid oral dosage form) groups were infested with approximately 100 unfed, adult cat fleas (C. felis). Flea counts were conducted approximately 48 hours later, on Day 32.
(§1) The therapeutic (knockdown) and residual efficacy of 7 and 8, each administered orally at a point dose of either 25 mg/kg or 50 mg/kg bodyweight, was evaluated against adult tick (Dermacentor variabilis and Rhipicephalus sanguineus) infestations on dogs. Twenty (20) male and female beagle dogs were allocated to one of five treatment groups, four (4) dogs per group: Untreated control; 7, 25 mg/kg; 7, 50 mg/kg; 8, 25 mg/kg; and 8, 50 mg/kg. On Day −1, all dogs were infested with approximately 50 unfed, adult D. variabilis ticks. On Day 0, dogs were orally administered gelatin capsules containing either 7 or 8 (50% technical active, 47% microcrystalline cellulose and 3% croscarmellose sodium, w/w) so as to achieve the desired point dosages. Ticks were counted and classified on all dogs, but not removed, on Day 1 (approximately 24 hours after treatment). On Day 2, approximately 48 hours after treatment, ticks were counted, classified and removed. Dogs were re-infested with the same number of D. variabilis ticks on Days 5, 12 and 19 with corresponding 48 hour post-infestation tick counts on Days 7, 14 and 21. Dogs were infested with approximately 50 unfed, adult brown dog ticks (Rhipicephalus sanguineus; approximately 50% male and 50% female) on Days 15 and 28, with corresponding 48 hour post-infestation tick counts on Days 17 and 30. GM percent efficacy of treatments against both tick species was calculated using the following formula: […]
The efficacy of 7, administered orally at a point dose of 25 mg/kg bodyweight, was evaluated against adult tick (Dermacentor variabilis) infestations. Twelve (12) male and female beagle dogs were allocated to three treatment groups: Untreated, negative control A; 7 group B; and 7 group C (n=4 dogs per group). Dogs were infested with approximately 50 unfed, adult D. variabilis ticks on Days −1, 5, 12, 19 and 28. […]

[2] = system: adult American dog tick (Dermacentor variabilis); test: Example 5: efficacy against adult American dog tick infestations on dogs; assay type: in vivo
Method: as §1

[3] = system: brown dog tick (Rhipicephalus sanguineus); test: Example 5: efficacy against brown dog tick infestations on dogs; assay type: in vivo
Method: as §1

[4] = system: Lone star tick larvae (Amblyomma americanum); test: Larval immersion microassay against larval-stage Lone star ticks; details: for mortality at 300 µM: Amblyomma americanum, 24 h, read-out: activity (percent larval mortality)
Method: The larval immersion microassay was conducted as described in detail in White, et al., J. Med. Entomol. […] Compounds of the invention were formulated in dimethylsulfoxide (DMSO) to prepare a stock solution at a concentration of at least 10 mM. […] Approximately 30-50 Lone star tick larvae (Amblyomma americanum) were submerged into each well containing compounds. After a 30 minute immersion period, larvae were removed with a wide-bore pipette tip in 0.05 ml of fluid, dispensed into a commercial paper tissue biopsy bag which was sealed at the top with a plastic dialysis clip, inverted and allowed to air dry for 60 minutes. Bags containing larvae were then incubated at approximately 27 degrees Celsius and >90% relative humidity. After 24 hours, bags were opened, live and dead larvae were counted and percent larval mortality was calculated.
7 contains one chiral center, and is therefore a racemic mixture comprised of approximately 50% R- and 50% S-enantiomer. In vitro and surrogate animal (rat) studies were conducted to evaluate the biological activity of the R- and S-enantiomers of 7. For the in vitro study, larvae of the Lone star tick (Amblyomma americanum) were exposed to 17 (S-enantiomer) and 18 (R-enantiomer) using the larval immersion microassay at a concentration of no greater than 0.3 mM. Following exposure, larvae were removed, transferred to a tissue biopsy bag and incubated at approximately 27 degrees Celsius and >90% relative humidity. After 24 hours, biopsy bags were opened and the numbers of live and dead larvae were determined.

[5] = system: cat flea (Ctenocephalides felis); test: Example 9: efficacy against cat flea infestations on dogs; assay type: in vivo; details: 50 mg/kg oral, Day 32
Method: (§2) The therapeutic (knockdown) and residual efficacy of 17, administered orally at a point dose of 50 mg/kg bodyweight, was evaluated against adult tick (Dermacentor variabilis and Rhipicephalus sanguineus) and adult cat flea (Ctenocephalides felis) infestations on dogs. Eight (8) male and female beagle dogs were allocated to either an untreated, negative control group or 17 group (n=4 dogs per group). Dogs were infested with approximately 50 unfed, adult D. variabilis ticks on Days −1, 5, 12, 19, and 28. On Day 0, dogs were orally administered gelatin capsules containing 17 (50% technical active, 47% microcrystalline cellulose and 3% croscarmellose sodium, w/w) at a point dose of 50 mg/kg. D. variabilis tick counts and classification were conducted on Day 1 (thumb count, approximately 24 hours after treatment) and Days 2, 7, 14, 21 and 30 (approximately 48 hours after treatment). Following removal of D. variabilis ticks on Day 30, all dogs were co-infested with approximately 50 unfed, adult brown dog ticks (R. sanguineus) and approximately 100 unfed, adult cat fleas (C. felis). Brown dog tick and cat flea counts were conducted on Day 32 (approximately 48 hours after infestation). GM percent efficacy of treatments against both tick species and fleas was calculated using the following formula: […]

[6] = system: brown dog tick (Rhipicephalus sanguineus); test: Example 9: efficacy against brown dog tick infestations on dogs; assay type: in vivo; details: 50 mg/kg oral, Day 32
Method: as §2

[7] = Clinical signs / tolerability in rats; assay type: in vivo; details: oral ≦5 mg/kg, Example 8
[8] = system: adult American dog tick (Dermacentor variabilis); test: Example 9: efficacy against adult American dog tick infestations on dogs; assay type: in vivo; details: 50 mg/kg oral
Method: as §2

[9] = system: Dermacentor variabilis tick nymphs; test: Efficacy against nymphal-stage American dog ticks on rats; assay type: in vivo
Method: Evaluations were conducted using a modified version of the assay as described in Gutierrez et al., J. Med. Entomol. 43(3): 526-532 (2006). This assay may be modified by simply using different tick species (the reference describes Amblyomma americanum ticks), such as Dermacentor variabilis or Rhipicephalus sanguineus ticks, as well as different life-stages (larval, nymphal or adult). Further, the reference describes using topical application methods, but oral, transdermal and subcutaneous injection routes of administration may be used.
In these studies, adult male or female rats, approximately 300 grams in size, were randomly assigned to a treatment group or a control (untreated negative control or fipronil positive control) group. Each group consisted of three (3) to five (5) rats. […] On Day 2, approximately forty-eight (48) hours after treatment, live and dead ticks were removed from animals and counted.
Live tick counts were transformed using the natural logarithm transformation plus one (Ln count+1); addition of one to each count served to adjust for counts that were zero. […] GM percent efficacy of treatments was calculated using the following formula:
Enantiomers were evaluated for activity against American dog tick (Dermacentor variabilis) nymphs on rats. […] On Day 2, approximately forty-eight (48) hours after treatment, live and dead ticks were removed from animals and counted. […]

CC1(C)OB(O)c2ccc(C3=NOC(c4cc(Cl)c(F)c(Cl)c4)(C(F)(F)F)C3)cc21 (stereo not shown) [Compound 8, 5-(5-(3,5-dichloro-4-fluorophenyl)-5-(trifluoromethyl)-4,5-dihydroisoxazol-3-yl)-3,3-dimethyl-benzo[c][1,2]oxaborol-1(3H)-ol]
tolerability ([1]; oral 25 or 50 mg/kg, Example 5): well tolerated | % efficacy ([2]; 25 mg/kg oral capsule, Day 1): (81.0) % | Geometric mean group live tick count ([2]; 25 mg/kg oral capsule, Day 1): 2.0 | Geometric mean group live tick count ([2]; 25 mg/kg oral capsule, Day 2): 0.0 | Geometric mean group live tick count ([2]; 25 mg/kg oral capsule, Day 7): 1.5 | % efficacy ([2]; 25 mg/kg oral capsule, Day 14): (85.0) % | Geometric mean group live tick count ([2]; 25 mg/kg oral capsule, Day 14): 2.5 | % efficacy ([2]; 25 mg/kg oral capsule, Day 21): (79.3) % | Geometric mean group live tick count ([2]; 25 mg/kg oral capsule, Day 21): 3.4 | % efficacy ([2]; 50 mg/kg oral capsule, Day 1): (80.9) % | Geometric mean group live tick count ([2]; 50 mg/kg oral capsule, Day 1): 2.0 | Geometric mean group live tick count ([2]; 50 mg/kg oral capsule, Day 2): 0.0 | Geometric mean group live tick count ([2]; 50 mg/kg oral capsule, Day 7): 0.6 | % efficacy ([2]; 50 mg/kg oral capsule, Day 14): (80.4) % | Geometric mean group live tick count ([2]; 50 mg/kg oral capsule, Day 14): 3.2 | % efficacy ([2]; 50 mg/kg oral capsule, Day 21): (75.1) % | Geometric mean group live tick count ([2]; 50 mg/kg oral capsule, Day 21): 4.0 | % efficacy ([3]; 25 mg/kg oral capsule, Day 17): (73.4) % | Geometric mean group live tick count ([3]; 25 mg/kg oral capsule, Day 17): 7.2 | % efficacy ([3]; 50 mg/kg oral capsule, Day 17): (80.2) % | Geometric mean group live tick count ([3]; 50 mg/kg oral capsule, Day 17): 5.4 | % efficacy ([3]; 50 mg/kg oral capsule, Day 30): (42.1) % | Geometric mean group live tick count ([3]; 50 mg/kg oral capsule, Day 30): 21.5 | mortality at 300 µM [4]: ≥ 80%

CC1(C)OB(O)c2ccc(C3=NO[C@@](c4cc(Cl)c(Cl)c(Cl)c4)(C(F)(F)F)C3)cc21 [Compound 17, (S)-3,3-Dimethyl-5-(5-(3,4,5-trichlorophenyl)-5-(trifluoromethyl)-4,5-dihydroisoxazol-3-yl)benzo[c][1,2]oxaborol-1(3H)-ol]
tolerability ([1]; oral 50 mg/kg, Example 9): well tolerated | Geometric mean group live flea count [5]: 0.0 | Geometric mean group live tick count [6]: 1.9 | tolerability [7]: well tolerated | mortality at 300 µM [4]: ≥ 80% | Geometric mean group live tick count ([8]; Day 1): 0.7 | Geometric mean group live tick count ([8]; Day 2): 0.0 | % efficacy ([8]; Day 7): (100) % | Geometric mean group live tick count ([8]; Day 7): 0.0 | % efficacy ([8]; Day 14): (96.7) % | Geometric mean group live tick count ([8]; Day 14): 1.2 | % efficacy ([8]; Day 21): (100) % | Geometric mean group live tick count ([8]; Day 21): 0.0 | Geometric mean group live tick count ([8]; Day 30): 1.9 | residual efficacy ([8]; through Day 21): 97-100%

CC1(C)OB(O)c2ccc(C3=NO[C@](c4cc(Cl)c(Cl)c(Cl)c4)(C(F)(F)F)C3)cc21 [Compound 18, (R)-3,3-Dimethyl-5-(5-(3,4,5-trichlorophenyl)-5-(trifluoromethyl)-4,5-dihydroisoxazol-3-yl)benzo[c][1,2]oxaborol-1(3H)-ol]
% Efficacy at Dose of ≦5 mg/kg ([9]; oral point doses of ≦5 mg/kg, D. variabilis nymphs, 48 hours after treatment, 5 mg/kg): 10.7% | tolerability [7]: well tolerated | In vitro activity at 0.3 mM ([4]; 0.3 mM, A. americanum larvae, counted after 24 hours): 0.0%

N#Cc1nn(-c2c(Cl)cc(C(F)(F)F)cc2Cl)c(N)c1[S+]([O-])C(F)(F)F (stereo not shown) [Fipronil, reference compound]
efficacy (% reduction in live tick counts) ([9]; positive control, oral 10 mg/kg bodyweight, all studies): > 95%
